pEC50: −log10 of the molar value. Active and inactive are the calls of the source. The rule behind the calls is not given here.
Experiments:
[1] = test system: CHO-K1; test: Effect on Ca2+ mobilization in GPR17 deficient CHOK1 cells at 0.1 uM after 20 mins by oregon green 488 BAPTA-1/AM dye-based fluorescence assay; assay type: functional, Cricetulus griseus
[2] = molecular target: T1, Uracil nucleotide/cysteinyl leukotriene receptor (Homo sapiens, UniProt Q13304); test: Agonist activity at recombinant human GPR17 short isoform transfected in CHO cells assessed as mobilization of intracellular Ca2+ at 0.3 uM after 20 mins by oregon green 488 BAPTA-1/AM dye-based fluorescence assay relative to control; assay type: functional, cell-based
T1 sequence (Q13304 whole entry, canonical isoform): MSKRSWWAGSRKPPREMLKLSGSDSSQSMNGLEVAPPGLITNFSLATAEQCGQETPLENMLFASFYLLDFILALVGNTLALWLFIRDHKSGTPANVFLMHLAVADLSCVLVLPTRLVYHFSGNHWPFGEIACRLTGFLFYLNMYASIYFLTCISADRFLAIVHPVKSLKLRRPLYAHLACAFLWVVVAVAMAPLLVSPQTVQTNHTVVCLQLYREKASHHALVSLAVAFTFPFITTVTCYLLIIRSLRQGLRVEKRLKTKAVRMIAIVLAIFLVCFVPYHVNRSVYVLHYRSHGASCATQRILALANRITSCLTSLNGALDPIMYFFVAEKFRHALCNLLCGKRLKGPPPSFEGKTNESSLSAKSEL

[3] = Effect on Ca2+ mobilization in GPR17 deficient human 1321N1 cells at 0.1 uM after 20 mins by oregon green 488 BAPTA-1/AM dye-based fluorescence assay; assay type: functional
[4] = molecular target: T1, Uracil nucleotide/cysteinyl leukotriene receptor; test: Agonist activity at recombinant human GPR17 short isoform transfected in CHO cells assessed as inhibition of forskolin-stimulated intracellular cAMP accumulation after 30 mins by FRET assay; assay type: functional, cell-based
[5] = test system: CHO; test: Inhibition of forskolin-stimulated intracellular cAMP accumulation in CHO cells after 30 mins by FRET assay; assay type: functional, cell-based; conditions: Cricetulus griseus
[6] = Effect on Ca2+ mobilization in GPR17 deficient human 1321N1 cells at 1 uM after 20 mins by oregon green 488 BAPTA-1/AM dye-based fluorescence assay; assay type: functional
[7] = molecular target: T1, Uracil nucleotide/cysteinyl leukotriene receptor; test: Agonist activity at recombinant human GPR17 short isoform transfected in human 1321N1 cells assessed as mobilization of intracellular Ca2+ at 1 uM after 20 mins by oregon green 488 BAPTA-1/AM dye-based fluorescence assay relative to control; assay type: functional, cell-based
[8] = molecular target: T1, Uracil nucleotide/cysteinyl leukotriene receptor; test: Agonist activity at recombinant human GPR17 short isoform transfected in CHO cells assessed as mobilization of intracellular Ca2+ at 1 uM after 20 mins by oregon green 488 BAPTA-1/AM dye-based fluorescence assay relative to control; assay type: functional, cell-based
[9] = test system: CHO-K1; test: Effect on Ca2+ mobilization in GPR17 deficient CHOK1 cells at 1 uM after 20 mins by oregon green 488 BAPTA-1/AM dye-based fluorescence assay; assay type: functional, Cricetulus griseus
[10] = molecular target: T1, Uracil nucleotide/cysteinyl leukotriene receptor; test: Antagonist activity at recombinant human GPR17 short isoform transfected in CHO cells assessed as inhibition of RA-II-150-mediated intracellular Ca2+ mobilization preincubated for 5 to 30 mins followed by RA-II-150 addition measured after 20 mins by oregon green 488 BAPTA-1/AM dye-based fluorescence assay; assay type: functional, cell-based
[11] = molecular target: T1, Uracil nucleotide/cysteinyl leukotriene receptor; test: Agonist activity at recombinant human GPR17 short isoform transfected in human 1321N1 cells assessed as mobilization of intracellular Ca2+ at 10 uM after 20 mins by oregon green 488 BAPTA-1/AM dye-based fluorescence assay relative to control; assay type: functional, cell-based
[12] = Effect on Ca2+ mobilization in GPR17 deficient human 1321N1 cells at 0.3 uM after 20 mins by oregon green 488 BAPTA-1/AM dye-based fluorescence assay; assay type: functional
[13] = test system: CHO-K1; test: Effect on Ca2+ mobilization in GPR17 deficient CHOK1 cells at 0.3 uM after 20 mins by oregon green 488 BAPTA-1/AM dye-based fluorescence assay; assay type: functional, Cricetulus griseus
[14] = molecular target: T1, Uracil nucleotide/cysteinyl leukotriene receptor; test: Agonist activity at recombinant human GPR17 short isoform transfected in CHO cells assessed as mobilization of intracellular Ca2+ after 20 mins by oregon green 488 BAPTA-1/AM dye-based fluorescence assay; assay type: functional, cell-based
[15] = molecular target: T1, Uracil nucleotide/cysteinyl leukotriene receptor; test: Agonist activity at recombinant human GPR17 short isoform transfected in CHO cells assessed as mobilization of intracellular Ca2+ at 3 uM after 20 mins by oregon green 488 BAPTA-1/AM dye-based fluorescence assay relative to control; assay type: functional, cell-based
[16] = Effect on Ca2+ mobilization in GPR17 deficient human 1321N1 cells at 3 uM after 20 mins by oregon green 488 BAPTA-1/AM dye-based fluorescence assay; assay type: functional
[17] = test system: CHO-K1; test: Effect on Ca2+ mobilization in GPR17 deficient CHOK1 cells at 3 uM after 20 mins by oregon green 488 BAPTA-1/AM dye-based fluorescence assay; assay type: functional, Cricetulus griseus
[18] = molecular target: T1, Uracil nucleotide/cysteinyl leukotriene receptor; test: Agonist activity at recombinant human GPR17 short isoform transfected in human 1321N1 cells assessed as mobilization of intracellular Ca2+ at 3 uM after 20 mins by oregon green 488 BAPTA-1/AM dye-based fluorescence assay relative to control; assay type: functional, cell-based
[19] = molecular target: T1, Uracil nucleotide/cysteinyl leukotriene receptor; test: Agonist activity at recombinant human GPR17 short isoform transfected in human 1321N1 cells assessed as mobilization of intracellular Ca2+ after 20 mins by oregon green 488 BAPTA-1/AM dye-based fluorescence assay; assay type: functional, cell-based

O=C(O)CCc1c(C(=O)O)[nH]c2cc(Cl)cc(Cl)c12
Activity [1]: 0%
Activity [2]: 100%
Activity [3]: 0%

NCC(=O)CCC(=O)O
inhibition [4]: Active
inhibition [5]: Active

Cc1cc(C)c2c(CCC(=O)O)c(C(=O)O)[nH]c2c1
Activity [6]: 1%
Activity [7]: 76%
Activity [8]: 68%
Activity [9]: 1%

O=C(Nc1cccc2c(=O)cc(-c3nnn[nH]3)oc12)c1ccc(OCCCCc2ccccc2)cc1
inhibition [10]: Dose-dependent effect

O=C(O)CCc1c(C(=O)O)[nH]c2cc(Br)cc(Br)c12
Activity [2]: 89%
Activity [11]: 106%
Activity [12]: 0%
Activity [13]: 0%

O=C(O)CCc1c(C(=O)O)[nH]c2cc(-c3ccccc3)cc(-c3ccccc3)c12
pEC50 [14]: 5.52

O=C(O)CCc1c(C(=O)O)[nH]c2cc(F)cc(F)c12
Activity [15]: 97%
Activity [16]: 2%
Activity [17]: 1%
Activity [18]: 77%

O=C(O)CCc1c(C(=O)O)[nH]c2cc(Cl)ccc12
Activity [7]: 84%
Activity [8]: 94%
Activity [12]: 4%
Activity [13]: 1%

O=C(O)CCc1c(C(=O)O)[nH]c2cc(Br)ccc12
pEC50 [14]: 5.50

O=C(O)CCc1c(C(=O)O)n(CCC(=O)O)c2cc(Cl)cc(Cl)c12
pEC50 [14]: 6.73
pEC50 [19]: 5.28
Activity [6]: 1%
Activity [7]: 80%
Activity [8]: 85%
Activity [9]: 1%

O=C(O)CCc1c(C(=O)O)[nH]c2cc(I)cc(I)c12
pEC50 [14]: 5.32

O=C(O)CCc1c(C(=O)O)[nH]c2cc(I)ccc12
pEC50 [14]: 6.15

O=C(O)CCc1c(C(=O)O)[nH]c2cc(-c3ccccc3)ccc12
pEC50 [14]: 6.14

Source: ChEMBL document CHEMBL3879883, “GPR 17 agonists and screening assay” (2013)
